Assay results taken from ChEMBL document CHEMBL1201862, “PubChem BioAssay data set” (2004).
Activity calls are given as the source filed them.

What was measured:
[1] = decrease of insulin promoter-GFP reporter – imaging, high-content screening, mouse beta cells (AID 1628); type: functional; conditions: MIN6
[2] = MIN6 cell viability loss – mouse insulinoma, cytotoxicity control, dose response (AID 2122); type: functional;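 note: confirmatory high-throughput counterscreen run to flag cytotoxic compounds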
[3] = Trypanosoma cruzi growth suppression in host cells – NIH3T3 host cells, beta-gal luminescence, confirmation (AID 2044); type: functional, cell-based;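 note: intracellular parasites grown in NIH/3T3 mouse fibroblasts as host cells; luminescent beta-galactosidase reporter signal from transgenic T. cruzi replicating inside host cells; inhibitors lower the luminescence signal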
[4] = NIH3T3 cell viability loss – ATP luminescence, mouse fibroblasts, counter-screen, dose response (AID 2010); type: functional, cell-based;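 note: cells exposed to compound for about 90 hours before reading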
[5] = target: T1, Sphingosine 1-phosphate receptor 4 (Homo sapiens, UniProt O95977); test: Fluorescence dose response cell-based high throughput screening assay for antagonists of the Sphingosine 1-Phosphate Receptor 4 (S1P4). [Related pubchem assays: 1524 (Confirmation in triplicates.), 1510 (Primary screen.)]; type: functional
T1 sequence (O95977 whole entry): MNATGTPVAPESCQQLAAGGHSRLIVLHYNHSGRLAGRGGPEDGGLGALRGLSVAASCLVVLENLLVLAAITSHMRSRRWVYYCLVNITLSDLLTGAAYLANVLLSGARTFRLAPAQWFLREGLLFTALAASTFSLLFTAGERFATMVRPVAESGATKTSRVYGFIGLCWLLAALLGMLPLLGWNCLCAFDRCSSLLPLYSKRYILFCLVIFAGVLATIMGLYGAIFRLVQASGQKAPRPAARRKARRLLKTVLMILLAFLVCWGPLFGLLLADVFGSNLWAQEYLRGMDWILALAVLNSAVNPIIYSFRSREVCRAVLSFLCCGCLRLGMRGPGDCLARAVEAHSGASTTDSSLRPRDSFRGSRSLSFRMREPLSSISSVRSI

[6] = target: Sphingosine 1-phosphate receptor 1 (Homo sapiens, UniProt P21453); type: functional;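 note: Tango beta-arrestin reporter U2OS cells stimulated with S1P near its EC80; inhibitor potency meaning antagonism of receptor activation by the natural agonist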
[7] = target: T2, Microphthalmia-associated transcription factor (Homo sapiens, UniProt O75030); test: reducers of TRPM1 reporter luminescence, concentration series – cell-based, SK-MEL-5, cherry-picked, set 3, MITF inhibitor project, dose response (AID 493073); type: functional;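 note: SK-MEL-5 melanoma cells with luciferase driven by the MITF target TRPM1 promoter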
T2 sequence (O75030 whole entry): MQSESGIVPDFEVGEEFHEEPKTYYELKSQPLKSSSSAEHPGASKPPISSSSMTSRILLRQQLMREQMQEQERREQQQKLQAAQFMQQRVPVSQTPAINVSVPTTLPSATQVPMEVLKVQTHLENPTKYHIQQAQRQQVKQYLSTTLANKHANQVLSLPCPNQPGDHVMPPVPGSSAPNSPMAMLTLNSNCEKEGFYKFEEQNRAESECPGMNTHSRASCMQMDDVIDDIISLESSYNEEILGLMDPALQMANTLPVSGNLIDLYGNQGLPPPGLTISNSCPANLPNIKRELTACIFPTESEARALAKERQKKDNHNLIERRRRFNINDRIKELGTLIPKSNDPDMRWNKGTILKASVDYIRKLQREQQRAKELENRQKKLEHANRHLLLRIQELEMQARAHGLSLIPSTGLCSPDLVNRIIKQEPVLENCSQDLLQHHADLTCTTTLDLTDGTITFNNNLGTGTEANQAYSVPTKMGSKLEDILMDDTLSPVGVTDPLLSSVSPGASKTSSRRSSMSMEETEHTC

Vero [8] = test: cells; type: functional, cell-based; conditions: Chlorocebus sabaeus
Vero [9] = test: cells; type: functional; conditions: Chlorocebus sabaeus
[10] = A549 cell cytotoxicity, dose response, cytotoxicity control, plate reader, cherry-pick, antagonist series (AID 743412); type: functional, cell-based
[11] = toxicity toward HepG2 liver cells – cell-based, plate reader, cherry-pick, antagonist series, cytotoxicity control, dose response (AID 743416); type: functional
[12] = blockers of bursicon-stimulated LGR2 cAMP reporter – cell-based, HEK293, CRE-luciferase reporter, cherry pick, set 2, dose response (AID 743343); type: functional;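 note: transfected cells were stimulated with diluted bursicon conditioned medium after compound addition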
[13] = blockade of melanocortin 4 receptor signaling – cell-based, plate reader, cherry pick, counter-screen for LGR2 antagonist project, dose response (AID 743444); type: functional;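 note: transfected HEK 293 cells stimulated with alpha-MSH peptide; potency of inhibitors of the alpha-MSH evoked signal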
[14] = viability loss in HEK293 cells – cell-based, plate reader, cherry-picked samples, cytotoxicity control, dose response (AID 743446); type: functional
HeLa = test: Cytotoxicity counterscreen assay for transcriptional activators of heat shock protein 70 (Hsp70). [Related pubchem assays: 1203, 1252 ]; type: functional; conditions: Homo sapiens;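 note: cells exposed to compound for 16 hours before readout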
[15] = system: Streptococcus sp. 'group A'; test: Streptococcus pyogenes SK(-)GAS viability under kanamycin – luminescence, BacTiterGlo, confirmation, counter-screen for streptokinase expression inhibitor project, dose response (AID 1900); type: functional, organism-based
Streptokinase A = target: T3, Streptokinase A (Streptococcus pyogenes serotype M1, UniProt P10520); test: viability-normalized secreted streptokinase activity reduction – plasminogen activation absorbance, OD405, dose response (AID 1914); type: functional, Streptococcus pyogenes M1 GAS;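 note: secreted streptokinase activity via plasminogen activation per viability signal from cell pellet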
T3 sequence (P10520 whole entry): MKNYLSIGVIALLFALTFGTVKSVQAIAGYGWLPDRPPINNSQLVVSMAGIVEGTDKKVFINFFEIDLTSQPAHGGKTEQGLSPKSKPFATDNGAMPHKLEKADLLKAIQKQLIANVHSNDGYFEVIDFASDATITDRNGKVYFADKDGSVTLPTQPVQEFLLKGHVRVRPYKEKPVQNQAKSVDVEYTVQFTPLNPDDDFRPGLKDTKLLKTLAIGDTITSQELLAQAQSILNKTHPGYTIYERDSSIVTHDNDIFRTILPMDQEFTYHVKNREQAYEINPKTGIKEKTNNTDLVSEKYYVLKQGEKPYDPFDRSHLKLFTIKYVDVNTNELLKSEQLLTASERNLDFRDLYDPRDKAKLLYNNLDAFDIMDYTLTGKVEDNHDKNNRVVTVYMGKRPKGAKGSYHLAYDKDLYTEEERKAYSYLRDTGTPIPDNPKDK

Estrogen receptor = target: T4, Estrogen receptor (Homo sapiens, UniProt P03372); test: ERα coactivator recruitment enhancers – biochemical, TR-FRET, ERα LBD, dose response (AID 737)
T4 sequence (P03372 whole entry): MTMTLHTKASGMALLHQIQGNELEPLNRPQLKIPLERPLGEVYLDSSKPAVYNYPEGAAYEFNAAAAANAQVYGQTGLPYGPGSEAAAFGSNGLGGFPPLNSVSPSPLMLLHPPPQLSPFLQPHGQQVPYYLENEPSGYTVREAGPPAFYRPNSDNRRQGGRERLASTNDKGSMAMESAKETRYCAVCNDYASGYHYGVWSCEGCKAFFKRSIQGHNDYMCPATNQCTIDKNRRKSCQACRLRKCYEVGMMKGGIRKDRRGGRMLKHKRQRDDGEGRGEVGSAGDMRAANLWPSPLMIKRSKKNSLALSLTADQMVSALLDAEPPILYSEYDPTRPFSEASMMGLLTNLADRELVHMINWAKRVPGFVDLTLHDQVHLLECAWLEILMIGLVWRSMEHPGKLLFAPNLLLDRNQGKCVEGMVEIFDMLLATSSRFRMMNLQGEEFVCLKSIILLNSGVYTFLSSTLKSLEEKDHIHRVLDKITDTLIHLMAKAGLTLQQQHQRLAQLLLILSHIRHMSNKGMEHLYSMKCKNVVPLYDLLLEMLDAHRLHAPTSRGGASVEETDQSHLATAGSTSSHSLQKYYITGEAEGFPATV

Streptococcus = test: GAS UMAA2166 growth inhibition – luminescence, BacTiterGlo, counter-screen for streptokinase expression inhibitor project, dose response (AID 1915); type: functional, organism-based;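 note: potency for reduction of bacterial viability or growth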
NS3 = NS3 (Hepatitis C virus, UniProt A3EZJ3); test: PubChem AID 2173; set-up: species or system Hepacivirus hominis
[16] = target: Epstein-Barr nuclear antigen 1 (Epstein-Barr virus (strain B95-8) (HHV-4) (Human herpesvirus 4), UniProt P03211); test: inhibition of EBV nuclear antigen 1 DNA binding – biochemical, fluorescence polarization, 1536-well, dose response (AID 2381); set-up: species or system human gammaherpesvirus 4;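 note: fluorescence polarization of a Cy5 DNA probe bound by EBNA-1 protein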
[17] = target: Lytic switch protein BZLF1 (Epstein-Barr virus (strain B95-8) (HHV-4) (Human herpesvirus 4), UniProt P03206); test: inhibition of BZLF1 ZTA DNA binding – biochemical, fluorescence polarization, Epstein-Barr virus, 1536-well, counter-screen for EBNA-1 inhibitor project, dose response (AID 2377); set-up: species or system human gammaherpesvirus 4;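 note: fluorescence polarization of Cy5-labelled ZRE DNA probe bound by purified Zta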
[18] = HEK-293T cell viability reduction – luminescence, B-cell screen hits, cytotoxicity control for BCR NF-kB inhibitor project, dose response (AID 489021); type: functional, cell-based;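 note: HEK-293T cells carrying an NF-kB luciferase reporter; cells exposed to compound for about 14 hours before viability readout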
[19] = luciferase reporter signal suppression in cells – H4 neuroglioma cells, luminescence, dose response (AID 1990); type: functional, cell-based
[20] = luciferase reporter signal reduction – luminescence, H4-C neuroglioblastoma cells, dose response (AID 2458); type: functional, cell-based;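 note: H4 neuroglioblastoma cells stably carrying a luciferase reporter gene fusion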
cells = type: functional, cell-based
[21] = Luminescence Cell-Based Dose Response HTS to Identify Inhibitors of 5'UTR Stem-Loop Driven Prion Protein mRNA Translation in H4 Neuroglioblastoma Cells. [Related pubchem assays: 1827 (Project Summary), 1813 (Primary HTS)]; type: functional
[22] = alpha-synuclein stem-loop luciferase translation blockers – H4 neuroglioma cells, luminescence, confirmation (AID 1988); type: functional, cell-based
[23] = alpha-synuclein stem-loop translation blockers – luminescence, H4 neuroglioblastoma cells, dose confirmation, confirmation (AID 2454); type: functional, cell-based;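 note: H4 neuroglioblastoma cells carrying an alpha-synuclein 5'UTR luciferase reporter; potency for inhibition of the luciferase signal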
[24] = A Cell Based Secondary Assay To Explore Cytotoxicity of Compounds that Sensitize Mycobacterium Tuberculosis to Beta-Lactam Antibiotics.; type: functional
Cytochrome P450 2D6 = Cytochrome P450 2D6 (Homo sapiens, UniProt P10635); test: qHTS Assay for Inhibitors and Substrates of Cytochrome P450 2D6. [Related pubchem assays: 410 ]; type: ADME; conditions: read-out: Potency
Cytochrome P450 3A4 = Cytochrome P450 3A4 (Homo sapiens, UniProt P08684); conditions: Potency;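 note: confirmatory qHTS run detecting inhibitors and substrates of CYP3A4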
Cytochrome P450 3A4, sequence (P08684 whole entry): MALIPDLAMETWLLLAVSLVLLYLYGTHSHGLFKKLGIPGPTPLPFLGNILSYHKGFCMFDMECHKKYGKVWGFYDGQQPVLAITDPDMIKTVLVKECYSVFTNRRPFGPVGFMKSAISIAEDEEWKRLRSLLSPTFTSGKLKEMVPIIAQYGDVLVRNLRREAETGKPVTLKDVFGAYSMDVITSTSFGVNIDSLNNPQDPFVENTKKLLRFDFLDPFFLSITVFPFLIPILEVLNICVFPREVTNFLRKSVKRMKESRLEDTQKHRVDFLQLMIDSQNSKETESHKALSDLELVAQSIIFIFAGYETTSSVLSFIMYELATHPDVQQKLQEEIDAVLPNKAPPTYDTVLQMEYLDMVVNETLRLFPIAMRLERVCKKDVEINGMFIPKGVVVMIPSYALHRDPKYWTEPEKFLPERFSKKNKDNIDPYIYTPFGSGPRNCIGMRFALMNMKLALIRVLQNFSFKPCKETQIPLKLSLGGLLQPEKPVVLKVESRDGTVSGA

Sphingosine 1-phosphate receptor 1, sequence (P21453 whole entry): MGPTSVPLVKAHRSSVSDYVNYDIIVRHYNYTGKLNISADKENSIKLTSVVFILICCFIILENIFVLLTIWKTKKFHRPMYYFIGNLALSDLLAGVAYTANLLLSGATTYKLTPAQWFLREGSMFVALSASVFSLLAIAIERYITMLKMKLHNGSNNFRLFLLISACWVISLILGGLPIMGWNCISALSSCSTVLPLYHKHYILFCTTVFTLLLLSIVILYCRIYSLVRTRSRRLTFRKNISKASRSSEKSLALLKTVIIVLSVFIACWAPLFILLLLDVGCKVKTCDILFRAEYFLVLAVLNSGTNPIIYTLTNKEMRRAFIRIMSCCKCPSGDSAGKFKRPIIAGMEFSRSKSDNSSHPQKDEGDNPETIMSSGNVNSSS
Cytochrome P450 2D6, sequence (P10635 whole entry): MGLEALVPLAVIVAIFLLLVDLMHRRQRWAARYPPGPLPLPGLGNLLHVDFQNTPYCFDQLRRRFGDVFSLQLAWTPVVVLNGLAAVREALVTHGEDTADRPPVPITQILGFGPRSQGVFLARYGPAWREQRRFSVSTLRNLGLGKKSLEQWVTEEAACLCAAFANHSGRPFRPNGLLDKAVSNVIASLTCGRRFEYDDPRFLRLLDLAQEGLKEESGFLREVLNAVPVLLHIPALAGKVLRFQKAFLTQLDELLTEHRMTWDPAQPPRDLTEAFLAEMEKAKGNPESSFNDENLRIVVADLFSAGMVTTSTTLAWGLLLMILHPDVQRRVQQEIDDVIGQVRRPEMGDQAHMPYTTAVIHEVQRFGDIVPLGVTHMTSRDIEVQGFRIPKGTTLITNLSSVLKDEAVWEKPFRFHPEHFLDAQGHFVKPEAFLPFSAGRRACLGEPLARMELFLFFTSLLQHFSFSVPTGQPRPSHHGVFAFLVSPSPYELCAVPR
Epstein-Barr nuclear antigen 1, sequence (P03211 whole entry): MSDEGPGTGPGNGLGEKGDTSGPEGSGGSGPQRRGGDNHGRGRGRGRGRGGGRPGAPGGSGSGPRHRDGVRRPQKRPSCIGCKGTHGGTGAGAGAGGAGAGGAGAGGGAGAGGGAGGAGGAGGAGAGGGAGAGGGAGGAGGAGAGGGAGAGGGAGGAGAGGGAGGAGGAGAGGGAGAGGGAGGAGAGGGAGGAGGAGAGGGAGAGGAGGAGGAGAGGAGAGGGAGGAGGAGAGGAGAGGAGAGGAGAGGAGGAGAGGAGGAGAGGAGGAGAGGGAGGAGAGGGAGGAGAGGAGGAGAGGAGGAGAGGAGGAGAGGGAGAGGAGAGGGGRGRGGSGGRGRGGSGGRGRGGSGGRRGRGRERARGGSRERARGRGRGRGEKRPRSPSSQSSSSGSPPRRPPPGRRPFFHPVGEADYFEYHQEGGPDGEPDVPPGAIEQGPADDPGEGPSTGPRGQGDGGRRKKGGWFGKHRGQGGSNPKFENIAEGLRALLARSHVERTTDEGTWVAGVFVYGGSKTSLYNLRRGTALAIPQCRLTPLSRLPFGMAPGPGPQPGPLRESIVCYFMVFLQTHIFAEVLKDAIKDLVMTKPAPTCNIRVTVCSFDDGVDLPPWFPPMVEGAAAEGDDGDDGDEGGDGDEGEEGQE
Lytic switch protein BZLF1, sequence (P03206 whole entry): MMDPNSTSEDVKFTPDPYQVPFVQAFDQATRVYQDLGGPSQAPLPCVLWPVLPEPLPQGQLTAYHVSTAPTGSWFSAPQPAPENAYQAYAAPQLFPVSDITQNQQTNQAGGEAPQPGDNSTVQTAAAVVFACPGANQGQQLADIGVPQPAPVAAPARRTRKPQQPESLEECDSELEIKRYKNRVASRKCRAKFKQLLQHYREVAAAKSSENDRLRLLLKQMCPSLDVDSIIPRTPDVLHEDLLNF
NS3, sequence (A3EZJ3 whole entry): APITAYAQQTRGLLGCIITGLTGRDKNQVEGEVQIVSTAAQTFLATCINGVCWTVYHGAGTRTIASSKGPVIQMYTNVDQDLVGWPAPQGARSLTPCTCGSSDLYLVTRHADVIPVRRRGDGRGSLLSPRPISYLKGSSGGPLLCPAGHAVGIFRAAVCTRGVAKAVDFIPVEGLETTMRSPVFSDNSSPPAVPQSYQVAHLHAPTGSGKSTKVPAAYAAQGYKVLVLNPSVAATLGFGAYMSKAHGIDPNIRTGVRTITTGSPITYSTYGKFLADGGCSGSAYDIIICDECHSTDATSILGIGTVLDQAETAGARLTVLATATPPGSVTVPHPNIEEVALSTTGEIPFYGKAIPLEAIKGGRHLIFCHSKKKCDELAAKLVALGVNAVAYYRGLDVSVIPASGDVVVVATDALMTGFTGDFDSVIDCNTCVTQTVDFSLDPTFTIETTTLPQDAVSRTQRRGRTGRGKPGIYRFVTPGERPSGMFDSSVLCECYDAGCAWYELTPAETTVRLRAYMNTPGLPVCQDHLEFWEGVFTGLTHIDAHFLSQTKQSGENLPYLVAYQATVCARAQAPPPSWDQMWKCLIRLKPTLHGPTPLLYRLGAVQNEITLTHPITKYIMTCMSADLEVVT

For `O=C(Cn1ncc(Cl)c(Cl)c1=O)N1CCN(Cc2ccccc2)CC1`, the IC50 [1] was 3.08 µM (active), the IC50 [2] was 2.16 µM (active) and the EC50 [3] was 2.22 µM (active). For the same compound, the EC50 [4] was 2.06 µM (active), the IC50 [5] was 3.5 µM (active) and the IC50 [6] was 9.93 µM (active). The AC50 [7] was 10.9 µM (active), the IC50 (Vero [8]) was > 25 µM (active) and the CC50 (Vero [9]) was 11.3 µM (active). For the same compound, the AC50 [10] was 11.1 µM (active), the AC50 [11] was 17.8 µM (active) and the AC50 [12] was 31.5 µM (active). For the same compound, the AC50 [13] was 34.1 µM (active) and the AC50 [14] was 7.54 µM (active).

With `N#Cc1ccc(NC(=O)c2nc(-c3ccccc3)n(-c3ccccc3)n2)cc1` the CC50 (HeLa) was > 99 µM (not active).

In the case of `Cn1nnnc1SCC(=O)Nc1nc(-c2ccccc2)c(-c2ccccc2)o1`, the EC50 [15] is reported as 12.7 µM (active), the EC50 (Streptokinase A) is reported as > 150 µM (not active) and the EC50 (Estrogen receptor) is reported as 22.2 µM (active). For the same compound, the EC50 (Streptococcus) was 26 µM (active).

With `COc1ccc(C2C(C(=O)c3ccc4c(c3)OCCO4)=C(O)C(=O)N2c2nc(C)c(C(C)=O)s2)cc1` (stereo not drawn) the IC50 (NS3) was 5.13 µM (active).

For `COc1ccc(C(=O)Nc2nnc(Cc3cccs3)s2)cc1OC`, the IC50 [16] was 41.5 µM (not active), the IC50 [17] was > 111 µM (not active) and the IC50 [18] was > 80 µM (inactive).

For `Nc1ccc(-c2cc3ccccc3oc2=O)cc1`, the EC50 [19] was < 100 nM (active), the EC50 [20] was 125 nM (active) and the EC50 (cells) was 215 nM (active). The EC50 [21] was < 100 nM (active), the EC50 [22] was < 100 nM (active) and the EC50 [23] was 156 nM (active). The IC50 [18] was > 80 µM (inactive).

In the case of `COC(=O)c1c(C)n(-c2ccc(C)cc2)c2ccc(O)cc12`, the CC50 [24] is reported as > 40 µM (active).

With `CC12C=C(/C=C/c3ccc(C(F)(F)F)cc3)C(C)(C1)C(c1ccc(C(F)(F)F)cc1)CC2=O` (stereo not drawn) the AC50 (Cytochrome P450 2D6) was 6.31 µM (inconclusive) and the AC50 (Cytochrome P450 3A4) was 3.98 µM (inconclusive).
